Patent US11179391B2, “Compound with kinase inhibitory activity and preparation method and use thereof” (priority 2017, dated 2021)
pIC50: −log10 of the molar value. Blank lines part the entries; values can stand above or below the compound they belong to.

Assays:
[1] = molecular target: CDK7/CyclinH/MAT1 (Homo sapiens, UniProt P50613); test: Determination of CDK activity (Caliper mobility shift, FAM-P8 peptide): CDK7; assay type: biochemical; settings: CDK7/CyclinH/MAT1; read-out: CDK7 enzymatic inhibitory activity (IC50)
Summary of the method: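 His-CDK7/GST-MAT1/cyclin H preincubated with compound (10-point series) 10 min at room temperature, then reacted with FAM-P8 peptide plus ATP at 28 °C for a set time before stopping. Peptide conversion read by Caliper mobility shift; converted to % inhibition vs controls and IC50 fitted.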

[2] = molecular target: CDK9/cyclinTl (Homo sapiens, UniProt P50750); test: Determination of CDK activity (Caliper mobility shift, FAM-P8 peptide): CDK9; assay type: biochemical; settings: CDK9/cyclinTl; read-out: CDK9 enzymatic inhibitory activity (IC50)
[3] = test system: Human breast cancer MDA-MB-361 cells; test: Pharmacodynamic study on mouse MDA-MB-361 model (subcutaneous xenograft); assay type: in vivo, SCID Beige mice; settings: for inhibitory effect on the tumor growth (in words): 15 mg/kg, continuous PO administration for 28 days; for Tumor volume (day 0): baseline at start of dosing; for Tumor volume (day 0) / Tumor volume (day 28) / T/C relative tumor proliferation rate / TGI tumor growth inhibition: methanesulfonic acid salt, 15 mg/kg PO × 28 days; for T/C relative tumor proliferation rate / TGI tumor growth inhibition: day 28
[4] = test system: Human breast cancer MCF-7 cells; test: Pharmacodynamic study on mouse MCF-7 model (subcutaneous xenograft); assay type: in vivo, BALB/c nude mice; settings: for Tumor volume (day 0) / antitumor effect compared with Abemaciclib (in words) / Tumor volume (day 14) / T/C relative tumor proliferation rate / TGI tumor growth inhibition rate: MCF-7 model; for Tumor volume (day 0): baseline at start of dosing; for Tumor volume (day 0) / Tumor volume (day 14) / T/C relative tumor proliferation rate / TGI tumor growth inhibition rate: mesylate, 30 mg/kg PO × 14 days; for antitumor effect compared with Abemaciclib (in words): same dosage (30 mg/kg PO × 14 days); for T/C relative tumor proliferation rate / TGI tumor growth inhibition rate: day 14; for inhibitory effect on the tumor growth (in words): MCF-7 nude mouse model, 30 mg/kg, continuous PO administration for 14 days

CDK7/CyclinH/MAT1, sequence (P50613 whole entry): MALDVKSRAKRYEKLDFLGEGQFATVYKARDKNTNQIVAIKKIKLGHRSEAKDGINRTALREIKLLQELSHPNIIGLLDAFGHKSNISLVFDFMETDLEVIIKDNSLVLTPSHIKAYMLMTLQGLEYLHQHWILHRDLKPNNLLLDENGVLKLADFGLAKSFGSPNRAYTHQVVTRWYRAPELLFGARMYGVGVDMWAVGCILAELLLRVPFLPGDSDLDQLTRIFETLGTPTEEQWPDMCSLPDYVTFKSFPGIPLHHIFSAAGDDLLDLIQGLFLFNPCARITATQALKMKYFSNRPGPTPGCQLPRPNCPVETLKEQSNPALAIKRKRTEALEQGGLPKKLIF
CDK7/CyclinH/MAT1, sequence (P51946 whole entry partner): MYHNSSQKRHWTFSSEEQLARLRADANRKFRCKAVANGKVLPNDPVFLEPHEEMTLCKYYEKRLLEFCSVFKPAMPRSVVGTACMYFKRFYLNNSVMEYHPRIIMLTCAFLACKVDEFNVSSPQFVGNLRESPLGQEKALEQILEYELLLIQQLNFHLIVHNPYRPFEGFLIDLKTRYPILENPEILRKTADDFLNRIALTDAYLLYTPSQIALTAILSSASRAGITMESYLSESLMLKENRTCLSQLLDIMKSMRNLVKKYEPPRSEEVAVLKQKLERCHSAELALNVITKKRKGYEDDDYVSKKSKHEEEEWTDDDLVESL
CDK7/CyclinH/MAT1, sequence (P51948 whole entry partner): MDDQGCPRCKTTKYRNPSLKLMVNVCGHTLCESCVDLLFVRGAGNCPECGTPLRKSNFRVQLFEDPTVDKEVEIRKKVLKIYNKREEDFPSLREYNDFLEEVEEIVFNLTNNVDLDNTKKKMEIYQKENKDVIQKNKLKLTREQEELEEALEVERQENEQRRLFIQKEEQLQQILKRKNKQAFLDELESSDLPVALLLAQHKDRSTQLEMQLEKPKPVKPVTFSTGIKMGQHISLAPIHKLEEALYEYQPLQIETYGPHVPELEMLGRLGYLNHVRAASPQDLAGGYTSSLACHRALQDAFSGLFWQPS
CDK9/cyclinTl, sequence (P50750 whole entry): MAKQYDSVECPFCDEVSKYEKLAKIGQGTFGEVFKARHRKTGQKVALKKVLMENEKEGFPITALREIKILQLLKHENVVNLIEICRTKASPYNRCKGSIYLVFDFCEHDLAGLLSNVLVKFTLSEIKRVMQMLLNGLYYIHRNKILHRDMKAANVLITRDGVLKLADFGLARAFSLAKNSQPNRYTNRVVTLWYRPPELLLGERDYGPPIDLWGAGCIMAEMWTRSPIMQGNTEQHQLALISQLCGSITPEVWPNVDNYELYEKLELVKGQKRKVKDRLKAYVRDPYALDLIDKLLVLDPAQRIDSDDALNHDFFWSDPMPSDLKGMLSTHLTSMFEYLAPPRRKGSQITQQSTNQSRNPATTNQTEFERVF
CDK9/cyclinTl, sequence (O60563 whole entry partner): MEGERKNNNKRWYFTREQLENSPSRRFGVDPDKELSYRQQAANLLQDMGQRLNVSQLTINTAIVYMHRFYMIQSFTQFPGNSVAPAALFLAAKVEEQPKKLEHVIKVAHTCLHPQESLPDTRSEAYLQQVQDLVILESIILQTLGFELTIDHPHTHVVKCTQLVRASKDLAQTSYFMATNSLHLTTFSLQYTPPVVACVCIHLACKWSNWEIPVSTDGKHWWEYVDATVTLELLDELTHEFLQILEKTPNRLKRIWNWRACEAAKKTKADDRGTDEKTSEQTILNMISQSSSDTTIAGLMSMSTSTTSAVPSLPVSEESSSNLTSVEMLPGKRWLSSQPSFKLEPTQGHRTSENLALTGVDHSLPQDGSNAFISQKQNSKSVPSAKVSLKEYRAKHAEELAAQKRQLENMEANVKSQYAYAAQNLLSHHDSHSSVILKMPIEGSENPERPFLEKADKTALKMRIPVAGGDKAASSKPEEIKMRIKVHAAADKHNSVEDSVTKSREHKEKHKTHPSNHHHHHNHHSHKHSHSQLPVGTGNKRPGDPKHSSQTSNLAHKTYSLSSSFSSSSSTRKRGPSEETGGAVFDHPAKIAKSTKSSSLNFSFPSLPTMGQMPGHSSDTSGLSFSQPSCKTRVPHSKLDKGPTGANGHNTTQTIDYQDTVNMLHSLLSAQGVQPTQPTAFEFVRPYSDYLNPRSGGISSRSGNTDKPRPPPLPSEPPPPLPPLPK

pIC50 [1]: 5.00 to 6.00 | pIC50 [2]: 6.30 to 7.00
Structure (SMILES): CCN1CCC(C(C)c2ccc(Nc3ncc(F)c(-c4cc(F)c5nc(C)n(C(C)C)c5c4)n3)nc2)CC1 (single isomer, unassigned) [Example 17, (R or S)—N-(5-(1-(1-ethylpiperidin-4-yl)ethyl)pyridin-2-yl)-5-fluoro-4-(4-fluoro-1-isopropyl-2-methyl-1H-benzo[d]imidazol-6-yl) pyrimidin-2-amine]
inhibitory effect on the tumor growth (in words) [3]: very strong inhibitory effect | Tumor volume (day 0) [3]: 175 mm^3 | Tumor volume (day 28) [3]: 90 mm^3 | T/C relative tumor proliferation rate [3]: −49% | TGI tumor growth inhibition [3]: 149% | Tumor volume (day 0) [4]: 210 mm^3 | antitumor effect compared with Abemaciclib (in words) [4]: better antitumor effects than positive control compound Abemaciclib | Tumor volume (day 14) [4]: 216 mm^3 | T/C relative tumor proliferation rate [4]: 0.9% | TGI tumor growth inhibition rate [4]: 99.1% | inhibitory effect on the tumor growth (in words) [4]: strong inhibitory effect

Structure (SMILES): CCN1CCC(=Cc2ccc(Nc3ncc(F)c(-c4cc(F)c5nc(C)n(C(C)C)c5c4)n3)nc2)CC1 [Example 57, N-(5-((1-ethylpiperidin-4-ylidene)methyl)pyridin-2-yl)-5-fluoro-4-(4-fluoro-1-isopropyl-2-methyl-1H-benzo[d]imidazol-6-yl)pyrimidin-2-amine]
pIC50 [1]: 5.00 to 6.00 | pIC50 [2]: > 7.00 | inhibitory effect on the tumor growth (in words) [3]: very strong inhibitory effect | Tumor volume (day 0) [3]: 175 mm^3 | Tumor volume (day 28) [3]: 99 mm^3 | T/C relative tumor proliferation rate [3]: −43% | TGI tumor growth inhibition [3]: 143% | Tumor volume (day 0) [4]: 209 mm^3 | antitumor effect compared with Abemaciclib (in words) [4]: better antitumor effects than positive control compound Abemaciclib | Tumor volume (day 14) [4]: 290 mm^3 | T/C relative tumor proliferation rate [4]: 12.5% | TGI tumor growth inhibition rate [4]: 87.5% | inhibitory effect on the tumor growth (in words) [4]: strong inhibitory effect
